Experimental findings from patent publication US20220380378A1 (ESSA Pharma, Inc., priority 2021, published 2022) are described below.

The structures appear in SMILES notation.

This experiment has as its target T1, androgen receptor (AR) (Homo sapiens, UniProt P10275, T878A).
T1 sequence (P10275 1-920 T878A): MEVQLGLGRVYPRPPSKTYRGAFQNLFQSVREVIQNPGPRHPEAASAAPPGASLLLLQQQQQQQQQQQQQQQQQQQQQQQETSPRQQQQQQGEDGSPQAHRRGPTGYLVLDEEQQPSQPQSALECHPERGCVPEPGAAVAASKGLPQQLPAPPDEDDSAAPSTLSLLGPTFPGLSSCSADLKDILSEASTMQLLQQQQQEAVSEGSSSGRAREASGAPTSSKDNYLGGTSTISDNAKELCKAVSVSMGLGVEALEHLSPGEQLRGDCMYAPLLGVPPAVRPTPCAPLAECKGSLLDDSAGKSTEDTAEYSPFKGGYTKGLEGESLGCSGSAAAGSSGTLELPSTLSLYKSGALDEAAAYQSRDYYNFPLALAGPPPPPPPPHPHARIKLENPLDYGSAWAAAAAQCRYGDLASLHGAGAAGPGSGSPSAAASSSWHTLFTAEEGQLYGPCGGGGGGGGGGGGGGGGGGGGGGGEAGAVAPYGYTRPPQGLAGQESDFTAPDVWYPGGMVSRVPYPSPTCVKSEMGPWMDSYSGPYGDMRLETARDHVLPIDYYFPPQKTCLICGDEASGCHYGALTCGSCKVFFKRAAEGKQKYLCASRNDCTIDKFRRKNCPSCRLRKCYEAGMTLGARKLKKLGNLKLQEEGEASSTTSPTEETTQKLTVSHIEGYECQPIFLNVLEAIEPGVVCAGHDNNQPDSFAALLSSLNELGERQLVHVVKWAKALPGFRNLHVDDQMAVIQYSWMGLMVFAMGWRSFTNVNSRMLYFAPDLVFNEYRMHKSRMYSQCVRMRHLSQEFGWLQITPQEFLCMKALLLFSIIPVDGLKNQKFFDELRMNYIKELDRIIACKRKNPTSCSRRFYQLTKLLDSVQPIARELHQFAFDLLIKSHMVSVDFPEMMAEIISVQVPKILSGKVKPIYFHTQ
In words: Androgen-induced PSA (6.1 kb)-luciferase reporter assay in LNCaP cells (R1881 1 nM). Type of experiment: cell-based. As to conditions: 24 h, read-out: PSA-Luc IC50 Range. Details: endogenous in cells; host or cells: LNCaP. As for the experimental part:
The PSA (6.1 kb)-luciferase reporter contains functional AREs (androgen response elements) to which AR binds in response to androgen to induce luciferase activity. LNCaP cells were transiently transfected with the PSA (6.1 kb)-luciferase reporter for 24 h, and then pretreated with vehicle (DMSO) or indicated concentration of representative compounds for one hour prior to the addition of synthetic androgen, R1881 (1 nM). After 24 h of incubation with R1881, the cells were harvested, and relative luciferase activities were determined (FIG. 1). To determine the IC50, treatments were normalized to vehicle control activity induced by R1881 (Table 2).
Luciferase Assay: Cells were lysed using Passive Lysis Buffer (Promega) and then collected into V-bottom 96-well tissue culture plates. Lysates were centrifuged at 4° C. for 5 minutes at 3000 rpm. To measure luminescence of LNCaP cell lysates the Firefly Luciferase Assay System (Promega) was employed, according to manufacturer's protocol. Relative luminescence units (RLU) in cell lysates were detected for 10 seconds using Promega GloMax-Multi Detection Luminometer (Promega). Values were normalized to protein content. GraphPad Prism graphing software was used to calculate IC50 values.
Statistical analyses were performed using GraphPad Prism (Version 6.01 for Windows; La Jolla, Calif., USA). Comparisons between treatment and control groups were compared using Two-Way ANOVA with post-hoc Dunnett's and Tukey's tests. Differences were considered statistically significant at P values less than 0.05.
Background: Reporter assays use an easily measured gene product as a stand-in for the process of interest.
Turning to `CC(C)(c1ccc(OCc2ccnc(NS(C)(=O)=O)n2)cc1)c1cnc(N2CCCCC2)c(Cl)c1` [Compound A105], the IC50 (in general, the midpoint of a concentration-inhibition curve) was over 2000 nM.

For `CS(=O)(=O)Nc1nccc(COc2ccc3c(ccn3-c3cc(Cl)c(OCC(Cl)(Cl)Cl)c(C#N)c3)c2)n1` [Compound A22], the concentration for half-maximal inhibition (IC50) is over 2000 nM. To `CC(C)(c1ccc(OCc2cncnc2N)cc1)c1cc(Cl)c(OCCCl)c(C#N)c1` [Compound A94] belongs 500 to 2000 nM; to `CS(=O)(=O)N1CCC(Oc2ccc3c(ccn3-c3cc(Cl)c(OCCCl)c(C#N)c3)c2)CC1` [Compound A200], 500 to 2000 nM; to `CC(C)(c1ccc(OCC23CCN(S(C)(=O)=O)C(C2)C3)cc1)c1cc(Cl)c(OCCCl)c(C#N)c1` [Compound A284], 500 to 2000 nM.

`CC(C)CNc1ncc(C(C)(C)c2ccc(OCc3ccnc(NS(C)(=O)=O)n3)cc2)cc1Cl` [Compound A67]: the half-maximal inhibitory concentration (IC50) is over 2000 nM. To `CC(C)(c1ccc(-c2ccc3cnc(NS(C)(=O)=O)nc3c2)cc1)c1cc(Cl)c(OCCCl)c(C#N)c1` [Compound A121] belongs over 2000 nM.

Take `CS(=O)(=O)NCC1CN(Cc2ccc3c(ccn3-c3cc(Cl)c(OCCCl)c(C#N)c3)c2)CCO1` (stereo not shown) [Compound A170]: the IC50 was over 2000 nM.

Regarding `CC(C)(c1ccc(OCc2ccnc(NS(C)(=O)=O)n2)cc1)c1cc(Cl)c(OCCCCl)c(C#N)c1` [Compound A181], the half-maximal inhibitory concentration (IC50) was in the range of 500 to 2000 nM. For the compound `COc1c(Cl)cc(C2CCc3cc(-c4ccc5nc(NS(C)(=O)=O)cnc5c4)ccc32)cc1C#N` (stereo not shown) [Compound A276], the half-inhibitory concentration (IC50) fell in the range of 500 to 2000 nM.

On to `N#Cc1cc(-n2ccc3cc(OCc4c[nH]nn4)ccc32)cc(Cl)c1OCCCl` [Compound A54], for which the IC50 lay in the range of 500 to 2000 nM. Turning to `CS(=O)(=O)N1CC2(CC(COc3ccc4c(ccn4-c4cc(Cl)c(OCCCl)c(C#N)c4)c3)C2)C1` [Compound A162], the IC50 was 500 to 2000 nM.

With `CS(=O)(=O)Nc1cnn(CCc2ccc3c(ccn3-c3cc(Cl)c(OCCCl)c(C#N)c3)c2)c1` [Compound A84], the half-maximal inhibitory concentration (IC50) is over 2000 nM.

For `CC(C)(c1ccc(-c2cnc3c(c2)OCCN3S(C)(=O)=O)cc1)c1cc(Cl)c(OCCCl)c(C#N)c1` [Compound A229], the IC50 was in the range of 500 to 2000 nM.

`CS(=O)(=O)NC1CCN(CCOc2ccc3c(ccn3-c3cc(Cl)c(OCCCl)c(C#N)c3)c2)CC1` [Compound A220]: the half-maximal inhibitory concentration (IC50) is over 2000 nM. As for `CS(=O)(=O)Nc1ncc(COc2ccc3c(ccn3-c3cc(Cl)c(OCCCl)c(C#N)c3)c2)c(N)n1` [Compound A10], the IC50 was over 2000 nM. The same measure for `CS(=O)(=O)N1CC(CCOc2ccc3c(ccn3-c3cc(Cl)c(OCCCl)c(C#N)c3)c2)C1` [Compound A225]: 500 to 2000 nM; for `C[C@H](Oc1ccc(C(C)(C)c2cc(Cl)c(OCCCl)c(C#N)c2)cc1)C12CC(NS(C)(=O)=O)(C1)C2` [Compound A265]: 500 to 2000 nM; for `CS(=O)(=O)NCC1CCN(Cc2ccc3c(ccn3-c3cc(Cl)c(OCCCl)c(C#N)c3)c2)CC1` [Compound A236]: over 2000 nM. Consider `CC1(NS(C)(=O)=O)CCN(Cc2ccc3c(ccn3-c3cc(Cl)c(OCCCl)c(C#N)c3)c2)CC1` [Compound A238], for which the IC50 is over 2000 nM. To `CS(=O)(=O)NC12CC(NC(=O)c3ccc4c(ccn4-c4cc(Cl)c(OCCCl)c(C#N)c4)c3)(C1)C2` [Compound A134] belongs over 2000 nM. The same measure for `CS(=O)(=O)Nc1nccc(COc2ccc3c(c2)C(c2cc(Cl)c(OCCCl)c(C#N)c2)CC3)n1` (stereo not shown) [Compound A31, N-(4-(((3-(3-chloro-4-(2-chloroethoxy)-5-cyanophenyl)-2,3-dihydro-1H-inden-5-yl)oxy)methyl)pyrimidin-2-yl)methanesulfonamide]: over 2000 nM; for `CS(=O)(=O)Nc1nccc(COc2ccc3cc(-c4cc(Cl)c(OCCCl)c(C#N)c4)ccc3c2)n1` [Compound A148]: over 2000 nM. For `CS(=O)(=O)CCOc1c(Cl)cc(-n2ccc3cc(OCc4ccnc(NS(C)(=O)=O)n4)ccc32)cc1C#N` [Compound A72], the 50% inhibitory concentration (IC50) is over 2000 nM. The same measure for `CC(=O)Nc1cnc(COc2ccc(C(C)(C)c3cc(Cl)c(OCCCl)c(C#N)c3)cc2)c(NS(C)(=O)=O)n1` [Compound A76]: under 500 nM; for `CC(C)(c1ccc(OCC23CC(C2)N(S(C)(=O)=O)C3)cc1)c1cc(Cl)c(OCCCl)c(C#N)c1` [Compound A285]: 500 to 2000 nM; for `CS(=O)(=O)N1C[C@H]2C[C@@H](Oc3ccc4c(ccn4-c4cc(Cl)c(OCCCl)c(C#N)c4)c3)C[C@H]2C1` [Compound A221]: 500 to 2000 nM.

Turning to `CS(=O)(=O)N[C@@H]1CC[C@@H](Oc2ccc3c(ccn3-c3cc(Cl)c(OCCCl)c(C#N)c3)c2)C1` [Compound A207], the IC50 is 500 to 2000 nM. The same measure for `CS(=O)(=O)Nc1nccc(COc2ccc3c(-c4cc(Cl)c(OCCCl)c(C#N)c4)ncnc3c2)n1` [Compound A18]: over 2000 nM; for `CS(=O)(=O)NC1CC2(C1)CN(Cc1ccc3c(ccn3-c3cc(Cl)c(OCCCl)c(C#N)c3)c1)C2` [Compound A171]: over 2000 nM; for `CS(=O)(=O)N[C@H]1CC[C@H](Oc2ccc3c(ccn3-c3cc(Cl)c(OCCCl)c(C#N)c3)c2)CC1` [Compound A242]: 500 to 2000 nM.

Regarding `CC(C)(c1ccc(-c2cnc3nc(NS(C)(=O)=O)cnc3c2)cc1)c1cc(Cl)c(OCCCl)c(C#N)c1` [Compound A219], the 50% inhibitory concentration (IC50) is 500 to 2000 nM. For the compound `CS(=O)(=O)NC1(CCOc2ccc3c(ccn3-c3cc(Cl)c(OCCCl)c(C#N)c3)c2)CC1` [Compound A227], the concentration for half-maximal inhibition (IC50) lay in the range of 500 to 2000 nM. The same measure for `CC(C)(c1ccc(-c2ccc3c(c2)OCC(CNS(C)(=O)=O)O3)cc1)c1cc(Cl)c(OCCCl)c(C#N)c1` (stereo not shown) [Compound A230]: over 2000 nM; for `CS(=O)(=O)Nc1nccc(COc2ccc3c(c2)OCCN3c2cc(Cl)c(OCCCl)c(C#N)c2)n1` [Compound A28, N-(4-(((4-(3-chloro-4-(2-chloroethoxy)-5-cyanophenyl)-3,4-dihydro-2H-benzo[b][1,4]oxazin-7-yl)oxy)methyl)pyrimidin-2-yl)methanesulfonamide]: 500 to 2000 nM.

For the compound `CC(C)(c1ccc(-c2cnc3oc(NS(C)(=O)=O)nc3c2)cc1)c1cc(Cl)c(OCCCl)c(C#N)c1` [Compound A256], the half-inhibitory concentration (IC50) is over 2000 nM. The same measure for `CS(=O)(=O)Nc1nccc(COc2ccc3c(ccn3-c3cc(Cl)c(OC=C(Cl)Cl)c(C#N)c3)c2)n1` [Compound A128]: 500 to 2000 nM. As for `CS(=O)(=O)Nc1nccc(COc2ccc3c(ccn3-c3cc(C#N)c(OCCCl)c(C(F)(F)F)c3)c2)n1` [Compound A21], the 50% inhibitory concentration (IC50) lay within 500 to 2000 nM. To `CS(=O)(=O)NCC1CCN1CCc1ccc2c(ccn2-c2cc(Cl)c(OCCCl)c(C#N)c2)c1` (stereo not shown) [Compound A248] belongs over 2000 nM; to `CS(=O)(=O)N1CCC2(CCC2Oc2ccc3c(ccn3-c3cc(Cl)c(OCCCl)c(C#N)c3)c2)CC1` (stereo not shown) [Compound A222], 500 to 2000 nM. For `CS(=O)(=O)Nc1ncc2c(n1)CCN(Cc1ccc3c(ccn3-c3cc(Cl)c(OCCCl)c(C#N)c3)c1)C2` [Compound A154], the IC50 was over 2000 nM. To `CS(=O)(=O)N1CCC(COc2ccc3c(ccn3-c3cc(Cl)c(OCCCl)c(C#N)c3)c2)C1` (stereo not shown) [Compound A210] belongs 500 to 2000 nM; to `CC(C)(c1ccc(-c2cnc3c(NS(C)(=O)=O)nccc3c2)cc1)c1cc(Cl)c(OCCCl)c(C#N)c1` [Compound A199], under 500 nM.
